Here are results for eight molecules from ChEMBL document CHEMBL1139215, “Discovery of aminofurazan-azabenzimidazoles as inhibitors of Rho-kinase with high kinase selectivity and antihypertensive activity” (J Med Chem, 2007).

The species named for data set [1] is Homo sapiens. The experiment in a line: Selectivity for ROCK1 over RSK1.
The species entered for data set [2] is Homo sapiens. The experiment in a line: Selectivity for ROCK1 over p70S6K.
The target of data set [3] is Rho-associated protein kinase 1 (Homo sapiens, UniProt Q13464). The experiment in a line: Inhibition of human ROCK1 in Sf9 cells. The format is cell-based.
The species named for data set [4] is Homo sapiens. The experiment in a line: Selectivity for ROCK1 over CDK2.
For data set [5], the species on record is Homo sapiens. The experiment in a line: Selectivity for ROCK1 over GSK3-beta.
The species named for data set [6] is Homo sapiens. The experiment in a line: Selectivity for ROCK1 over MSK1.
Data set [7] can be described thus: Cmax in Sprague-Dawley rat at 2.2 mg/kg, po. It counts as ADME, organism-based. Also on record: dose 2.2 mg/kg, route oral. As to conditions: in vivo.
The nature of data set [8]: Half life in Sprague-Dawley rat at 1 mg/kg, iv. It counts as ADME, organism-based. Also on record: dose 1 mg/kg, route intravenous. The conditions noted are these: in vivo.
Data set [9] in a line: Oral bioavailability in Sprague-Dawley rat at 2.2 mg/kg, po. It counts as ADME, organism-based. The conditions noted are these: in vivo.
Data set [10] is described as follows: Cmax in Sprague-Dawley rat at 1 mg/kg, iv. Also on record: dose 1 mg/kg, route intravenous. The conditions noted are these: in vivo. The format is ADME, organism-based.
For a further data set, the system named is Aorta. The experiment in a line: Relaxation of phenylephrine contracted Sprague-Dawley rat aortic rings. The format is functional, tissue-based.
Data set [11] is described as follows: Clearance in Sprague-Dawley rat at 1 mg/kg, iv. The format is ADME, organism-based. Also on record: dose 1 mg/kg, route intravenous. The conditions noted are these: in vivo.
Data set [12] in a line: Volume of distribution in Sprague-Dawley rat at 1 mg/kg, iv. The format is ADME, organism-based. Also on record: dose 1 mg/kg, route intravenous. As to conditions: in vivo, read-out: Vdss.
Data set [13] concerns Rattus norvegicus. The experiment in a line: Reduction of mean arterial blood pressure in spontaneous hypertensive rat at 1 mg/kg, po. The format is functional, organism-based. Also on record: dose 1 mg/kg.
A short description of data set [14]: Cmax in Sprague-Dawley rat at 3.3 mg/kg, po. As to conditions: in vivo. The format is ADME, organism-based. Also on record: dose 3.3 mg/kg, route oral.
The nature of data set [15]: Oral bioavailability in Sprague-Dawley rat at 3.3 mg/kg, po. The format is ADME, organism-based. The conditions noted are these: in vivo.
Data set [16] in a line: Half life in Sprague-Dawley rat at 1.6 mg/kg, iv. Also on record: dose 1.6 mg/kg, route intravenous. The conditions noted are these: in vivo. The format is ADME, organism-based.
The nature of data set [17]: Plasma concentration in spontaneously hypertensive rat at 3 mg/kg, po after 4 hrs. It counts as ADME, organism-based. Also on record: dose 3 mg/kg, route oral.
Data set [18] is described as follows: Clearance in Sprague-Dawley rat at 1.6 mg/kg, iv. The format is ADME, organism-based. Also on record: dose 1.6 mg/kg, route intravenous. The conditions noted are these: in vivo.
Data set [19] in a line: Plasma concentration in spontaneously hypertensive rat at 3 mg/kg, po after 1 hr. The format is ADME, organism-based. Also on record: dose 3 mg/kg, route oral.
A short description of data set [20]: Volume of distribution in Sprague-Dawley rat at 1.6 mg/kg, iv. As to conditions: in vivo, read-out: Vdss. Also on record: dose 1.6 mg/kg, route intravenous. The format is ADME, organism-based.
The nature of data set [21]: Plasma concentration in spontaneously hypertensive rat at 3 mg/kg, po after 2 hrs. The format is ADME, organism-based. Also on record: dose 3 mg/kg, route oral.
The nature of data set [22]: Cmax in Sprague-Dawley rat at 1.6 mg/kg, iv. The conditions noted are these: in vivo. It counts as ADME, organism-based. Also on record: dose 1.6 mg/kg, route intravenous.
Data set [23] is described as follows: Plasma concentration in spontaneously hypertensive rat at 3 mg/kg, po after 0.5 hrs. Also on record: dose 3 mg/kg, route oral. It counts as ADME, organism-based.
Data set [24] relates to Rattus norvegicus. The experiment in a line: Reduction of mean arterial blood pressure in spontaneous hypertensive rat at 0.3 mg/kg, po. It counts as functional, organism-based. Also on record: dose 0.3 mg/kg.
Data set [25] relates to Rattus norvegicus. The experiment in a line: Reduction of mean arterial blood pressure in spontaneous hypertensive rat at 3 mg/kg, po. The format is functional, organism-based. Also on record: dose 3 mg/kg.
A short description of data set [26]: Plasma concentration in spontaneously hypertensive rat at 3 mg/kg, po after 8 hrs. The format is ADME, organism-based. Also on record: dose 3 mg/kg, route oral.
A short description of data set [27]: Clearance in Sprague-Dawley rat at 2.4 mg/kg, iv. The format is ADME, organism-based. Also on record: dose 2.4 mg/kg, route intravenous. The conditions noted are these: in vivo.
The nature of data set [28]: Volume of distribution in Sprague-Dawley rat at 2.4 mg/kg, iv. It counts as ADME, organism-based. Also on record: dose 2.4 mg/kg, route intravenous. As to conditions: in vivo, read-out: Vdss.
Data set [29] can be described thus: Half life in Sprague-Dawley rat at 2.4 mg/kg, iv. As to conditions: in vivo. Also on record: dose 2.4 mg/kg, route intravenous. It counts as ADME, organism-based.
A short description of data set [30]: Cmax in Sprague-Dawley rat at 2.4 mg/kg, iv. It counts as ADME, organism-based. Also on record: dose 2.4 mg/kg, route intravenous. The conditions noted are these: in vivo.

The source made the active and inactive calls. The rule behind the calls is not given here.

Sequence of Rho-associated protein kinase 1 (Q13464 whole entry): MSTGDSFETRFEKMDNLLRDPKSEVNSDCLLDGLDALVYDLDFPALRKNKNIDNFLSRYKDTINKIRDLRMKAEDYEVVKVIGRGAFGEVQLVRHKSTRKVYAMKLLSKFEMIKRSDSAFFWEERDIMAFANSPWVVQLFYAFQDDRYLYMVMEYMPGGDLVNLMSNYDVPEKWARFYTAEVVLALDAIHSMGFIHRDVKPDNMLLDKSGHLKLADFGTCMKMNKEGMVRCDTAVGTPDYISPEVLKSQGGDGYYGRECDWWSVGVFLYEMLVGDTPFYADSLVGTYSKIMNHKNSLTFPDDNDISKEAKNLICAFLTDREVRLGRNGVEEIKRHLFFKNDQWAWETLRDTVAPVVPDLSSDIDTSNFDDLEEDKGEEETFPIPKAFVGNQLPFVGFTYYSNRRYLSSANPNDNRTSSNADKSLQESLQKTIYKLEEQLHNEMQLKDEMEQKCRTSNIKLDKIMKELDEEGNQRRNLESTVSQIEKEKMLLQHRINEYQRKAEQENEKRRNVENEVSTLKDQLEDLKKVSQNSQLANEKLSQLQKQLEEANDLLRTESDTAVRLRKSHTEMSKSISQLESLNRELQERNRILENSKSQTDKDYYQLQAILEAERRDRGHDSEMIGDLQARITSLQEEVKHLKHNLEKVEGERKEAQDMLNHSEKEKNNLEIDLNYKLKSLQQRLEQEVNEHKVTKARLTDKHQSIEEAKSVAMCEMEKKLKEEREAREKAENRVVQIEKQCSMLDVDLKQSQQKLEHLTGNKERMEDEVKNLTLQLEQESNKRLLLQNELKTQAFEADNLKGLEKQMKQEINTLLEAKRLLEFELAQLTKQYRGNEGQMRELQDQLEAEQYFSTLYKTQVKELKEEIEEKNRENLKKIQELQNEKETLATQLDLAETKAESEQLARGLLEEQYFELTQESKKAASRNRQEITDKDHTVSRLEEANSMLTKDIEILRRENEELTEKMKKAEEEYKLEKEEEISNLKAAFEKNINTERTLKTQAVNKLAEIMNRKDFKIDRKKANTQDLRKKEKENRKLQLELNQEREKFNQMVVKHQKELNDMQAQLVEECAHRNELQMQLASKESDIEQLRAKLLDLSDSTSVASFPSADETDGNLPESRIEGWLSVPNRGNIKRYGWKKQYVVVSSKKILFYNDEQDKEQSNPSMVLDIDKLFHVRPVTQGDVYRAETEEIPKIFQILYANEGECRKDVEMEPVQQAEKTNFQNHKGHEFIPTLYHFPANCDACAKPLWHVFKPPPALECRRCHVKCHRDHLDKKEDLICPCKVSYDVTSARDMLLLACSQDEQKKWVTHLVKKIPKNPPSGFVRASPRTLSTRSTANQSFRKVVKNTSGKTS

`CCn1c(-c2nonc2N)nc2cnc(OC)cc21`: the Selectivity ratio in the data set listed under Homo sapiens [1] came to 18; in the data set filed under Homo sapiens [2] it was 15; in the data set listed under Homo sapiens [4], 55; in the data set filed under Homo sapiens [5], 250; in the data set listed under Homo sapiens [6], 2.3. This molecule had a concentration for half-maximal inhibition (IC50) in data set [3] of 0.0044 µM.
For the molecule `CCn1c(-c2nonc2N)nc2cnc(Oc3cccc(C(C)=O)c3)cc21`, the Selectivity ratio is 12 in the data set filed under Homo sapiens [1]; 6.2 in the data set listed under Homo sapiens [2]; 460 in the data set listed under Homo sapiens [4]; > 1000 in the data set filed under Homo sapiens [5]; 12 in the data set listed under Homo sapiens [6]. Also, in data set [3], the concentration for half-maximal inhibition (IC50) was 0.013 µM.
On to `CCn1c(-c2nonc2N)nc2cnc(Oc3cccc(N)c3)cc21`, for which the Selectivity ratio in the data set listed under Homo sapiens [1] is 8.9; in the data set filed under Homo sapiens [2], 13; in the data set filed under Homo sapiens [4] it was 320; in the data set listed under Homo sapiens [5] it was 300; in the data set filed under Homo sapiens [6], 9.4. In addition, in data set [3], the midpoint of inhibition, the IC50, lay at 0.018 µM.
Consider `CCn1c(-c2nonc2N)nc2cnc(Oc3cccc(NC(C)=O)c3)cc21`, for which the Selectivity ratio was 18 in the data set listed under Homo sapiens [1]; 14 in the data set filed under Homo sapiens [2]; > 1000 in the data set filed under Homo sapiens [4]; > 1000 in the data set listed under Homo sapiens [5]; 2.8 in the data set filed under Homo sapiens [6]. Half-maximal inhibition in [3] (IC50) was put at 0.0018 µM.
Regarding `CCn1c(-c2nonc2N)nc2cnc(Oc3cccc(NC(=O)c4ccc(CN(C)C)cc4)c3)cc21`, the Cmax in [7] is 0.16 µg/mL; in data set [10], 0.63 µg/mL. This molecule showed a half-life in data set [8] of 1.9 h. The Selectivity ratio in the data set filed under Homo sapiens [1] was > 80; in the data set listed under Homo sapiens [2] it was > 3; in the data set listed under Homo sapiens [6], > 52. In [9], this molecule displayed a bioavailability of 47%. The values for the IC50 (in data set [3]; with Aorta) were ≤ 0.001 µM and 0.074 µM, respectively. Further, in data set [11], the clearance was determined as 1.8 L/h/kg. Besides, the Vd in data set [12] came to 2.4 L/kg.
Consider `CCn1c(-c2nonc2N)nc2cnc(Oc3cccc(NC(=O)c4ccc(OCCN5CCOCC5)cc4)c3)cc21` [GSK-269962A], for which the outcome in the data set with Rattus norvegicus [13], with Rattus norvegicus [24] and with Rattus norvegicus [25] was Active. Also, the figures for the Cmax in data set [14] and in [22] were 0.8 µg/mL and 1.27 µg/mL, respectively. For the same molecule, the bioavailability in data set [15] was found to be 78%. In [16], this molecule gave a half-life of 2.2 h. Also, in data set [17], the concentration at 4 h was determined as 0.15 µg/mL. The clearance in data set [18] amounted to 0.456 L/h/kg. Further, in data set [19], the concentration at 1 h is 0.33 µg/mL. In [20], the Vd was determined as 1.3 L/kg. For the same molecule, the concentration at 2 h in [21] was found to be 0.29 µg/mL. The IC50 in the data set with Aorta came out at 0.035 µM. The molecule further showed a concentration at 0.5 h in data set [23] of 0.28 µg/mL. Also, in data set [26], the concentration at 8 h was determined as 0.088 µg/mL.
Take `CCn1c(-c2nonc2N)nc2cnc(Oc3ccc(NC(C)=O)cc3)cc21`: the Selectivity ratio in the data set filed under Homo sapiens [1] is 12; in the data set listed under Homo sapiens [2], 9.2; in the data set filed under Homo sapiens [4], 110; in the data set listed under Homo sapiens [5], > 160; in the data set filed under Homo sapiens [6] it was 9.7. This molecule displayed a concentration for half-maximal inhibition (IC50) in data set [3] of 0.09 µM.
With `CCn1c(-c2nonc2N)nc2cnc(Oc3cccc(NC(=O)c4ccc(OCCN(C)C)cc4)c3)cc21`, the Cmax in [14] and in [30] was 0.41 µg/mL each time. This molecule also showed a bioavailability in [15] of 40%. In addition, the clearance in [27] turned out to be 7.26 L/h/kg. For the same molecule, the Selectivity ratio was > 80 in the data set filed under Homo sapiens [1], > 3 in the data set filed under Homo sapiens [2] and > 65 in the data set filed under Homo sapiens [6]. For the same molecule, the Vd in [28] was 8.9 L/kg. Moreover, the IC50 in [3] is ≤ 0.001 µM; in the data set with Aorta it was 0.079 µM. In [29], this molecule gave a half-life of 2.1 h.
